Assay results reported in patent US10391095B2, “DNA-PK inhibitors” (Vertex Pharmaceuticals Incorporated, priority 2012, dated 2019).

Target: DNA-PK (Homo sapiens, UniProt P78527)
Experiment: DNA-PK inhibition assay (radiometric, 33P-ATP)
Format: biochemical
Settings: 100 μM ATP, competitive tight-binding fit
Procedure: Compounds were screened for their ability to inhibit DNA-PK kinase using a standard radiometric assay. Briefly, in this kinase assay the transfer of the terminal ^33P-phosphate in ^33P-ATP to a peptide substrate is interrogated. The assay was carried out in 384-well plates to a final volume of 50 μL per well containing approximately 6 nM DNA-PK, 50 mM HEPES (pH 7.5), 10 mM MgCl2, 25 mM NaCl, 0.01% BSA, 1 mM DTT, 10 μg/mL sheared double-stranded DNA (obtained from Sigma), 0.8 mg/mL DNA-PK peptide ([…] obtained from American Peptide), and 100 μM ATP. Accordingly, compounds of the invention were dissolved in DMSO to make 10 mM initial stock solutions. Serial dilutions in DMSO were then made to obtain the final solutions for the assay. A 0.75 μL aliquot of DMSO or inhibitor in DMSO was added to each well, followed by the addition of ATP substrate solution containing ^33P-ATP (obtained from Perkin Elmer). The reaction was started by the addition of DNA-PK, peptide and ds-DNA. After 45 min, the reaction was quenched with 25 μL of 5% phosphoric acid. The reaction mixture was transferred to MultiScreen HTS 384-well PH plates (obtained from Millipore), allowed to bind for one hour, and washed three times with 1% phosphoric acid. Following the addition of 50 μL of Ultima Gold™ high efficiency scintillant (obtained from Perkin Elmer), the samples were counted in a Packard TopCount NXT Microplate Scintillation and Luminescence Counter (Packard BioScience). The Ki values were calculated using Microsoft Excel Solver macros to fit the data to the kinetic model for competitive tight-binding inhibition.

Ki, < 30 nM:
CNC(=O)c1c(F)cnc2c([C@H](C)CNc3cc(-c4cnc(C5CCC5)nc4)ncn3)cccc12 [Compound 856]
Cc1ccc(-c2cc(NCC(C)c3cccc4nsnc34)ncn2)cn1 (stereo not shown) [Compound 398]
C=CCNc1ccc(-c2cc(NC[C@@H](C)c3ccc(C(=O)NC)cc3OC)ncn2)cn1 [Compound 387]
COc1ccc(C(C)CNc2cc(-c3ccc(C)nc3)ncn2)c(N)n1 (stereo not shown) [Compound 642]
C[C@H](CNc1cc(-c2cnc3c(cnn3CC(O)CO)c2)ncn1)c1ccnc2c1OCC2 (single isomer, unassigned) [Compound 436]
CNC(=O)c1ccnc2c([C@H](C)CNc3cc(-c4cnc(NC)nc4)ncn3)cccc12 [Compound 579]
C[C@H](CNc1cc(-c2cnc3ccccc3c2)ncn1)c1ccnc2c1OCCO2 [Compound 559]
CNC(=O)c1c(F)cnc2c([C@H](C)CNc3cc(-c4cnc(C)nc4)ncn3)cccc12 [Compound 636]
CNC(=O)c1c(F)cnc2c([C@H](C)CNc3cc(-c4cnc(C)c(F)c4)ncn3)cccc12 [Compound 973]
CNC(=O)c1c(F)cnc2c([C@H](C)CNc3cc(-c4ccc(C)nc4)ncn3)cccc12 [Compound 620]
CNC(=O)c1ccnc2c([C@H](C)CNc3cc(-c4cnc(NC(C)C)nc4)ncn3)cccc12 [Compound 618]
CNC(=O)c1ccnc2c([C@H](C)CNc3cc(-c4cnc(C)s4)ncn3)ccc(F)c12 [Compound 827]
CNC(=O)c1ncnc2c([C@H](C)CNc3cc(-c4cnc(C)nc4)ncn3)cccc12 [Compound 976]
COc1ccccc1[C@H](C)CNc1cc(-c2ccc(NC3CCN(C)CC3)nc2)ncn1 [Compound 254]
CNC(=O)c1ccnc2c([C@H](C)CNc3cc(-c4cncc(C#N)c4)ncn3)cccc12 [Compound 868]
CNC(=O)c1ccnc2c([C@H](C)CNc3cc(-c4ccc(OCC5CC5)nc4)ncn3)ccc(F)c12 [Compound 904]
CNC(=O)c1ccnc2c([C@H](C)CNc3cc(-c4cnc(OC(C)C)nc4)ncn3)ccc(F)c12 [Compound 983]
CNC(=O)c1ccc(C(C)CNc2cc(-c3cnc4c(cnn4CC(=O)OC)c3)ncn2)c(OC)c1 (stereo not shown) [Compound 273]
COc1cscc1C(C)CNc1cc(-c2cnc3c(cnn3CCO)c2)ncn1 (stereo not shown) [Compound 261]
CC(CNc1cc(-c2ccc(N3CCN(C)CC3)nc2)ncn1)c1ccc(F)cc1OC1CC1 (stereo not shown) [Compound 271]
CNC(=O)c1ccc(C(C)CNc2cc(-c3cnc4c(cnn4CCO)c3)ncn2)c(OC)c1 (stereo not shown) [Compound 153]
COc1ccccc1CCNc1cc(-c2ccc(C)nc2)ncn1 [Compound 11]
COc1ccccc1[C@H](C)CNc1cc(-c2ccnc(NCCO)c2)ncn1 [Compound 119]
CNC(=O)c1ccc(C(C)CNc2cc(-c3cnc4c(cnn4CCOC)c3)ncn2)c(OC)c1 (stereo not shown) [Compound 154]
C=C(CNc1cc(-c2ccc(C)nc2)ncn1)c1cnc(N)nc1OC [Compound 453]
COc1ccccc1CCNc1cc(-c2cnc3c(cnn3C(C)C)c2)ncn1 [Compound 44]
COc1ccc(N)cc1C(C)CNc1cc(-c2ccc(C)nc2)ncn1 (stereo not shown) [Compound 290]
COc1cc(F)c(F)cc1C(C)CNc1cc(-c2ccc(C)nc2)ncn1 (stereo not shown) [Compound 117]
CNC(=O)c1ccnc2c([C@H](C)CNc3cc(-c4ccc(N5CCCC5)nc4)ncn3)cccc12 [Compound 723]
C[C@H](CNc1cc(-c2ccc(N3CCN(C)CC3)nc2)ncn1)c1cccc2c1OCC2 [Compound 132]
C[C@H](CNc1cc(-c2cnc3c(cnn3C3COC3)c2)ncn1)c1ccnc2c1OCC2 [Compound 417]
C[C@H](CNc1cc(-c2cc(F)c3ncccc3c2)ncn1)c1ccnc2c1OCCO2 [Compound 556]
Cc1ccc(-c2cc(NCC(C)c3cccnc3OC3CCC3)ncn2)cn1 (stereo not shown) [Compound 247]
CNC(=O)c1ccnc2c([C@H](C)CNc3cc(-c4cnc(OC5COC5)nc4)ncn3)cccc12 [Compound 666]
CNC(=O)c1ccnc2c([C@H](C)CNc3cc(-c4cnc(OC)c(Cl)c4)ncn3)cccc12 [Compound 949]
CNC(=O)c1ccnc2c([C@H](C)CNc3cc(-c4ccc(C(=O)O)cc4)ncn3)cccc12 [Compound 672]
CNC(=O)c1ccnc2c([C@H](C)CNc3cc(-c4cnn(C)c4)ncn3)cccc12 [Compound 661]
Cc1ccc(-c2cc(NCC(C)c3ccc(F)c4ccoc34)ncn2)cn1 (stereo not shown) [Compound 477]
CCNc1ccc(-c2cc(NC[C@@H](C)c3ccc(F)c4c(C(=O)NC)ccnc34)ncn2)cn1 [Compound 922]
COc1sccc1C(C)CNc1cc(-c2cnc3c(cnn3CCO)c2)ncn1 (stereo not shown) [Compound 259]
CNC(=O)c1ccnc2c([C@H](C)CNc3cc(-c4ccc(-c5nnnn5C)nc4)ncn3)cccc12 [Compound 958]
CNC(=O)c1ccnc2c([C@H](C)CNc3cc(-c4ccc(C5(N)CC5)nc4)ncn3)ccc(F)c12 [Compound 940]
CNC(=O)c1ccnc2c([C@H](C)CNc3cc(-c4ccnc(C)c4)ncn3)ccc(F)c12 [Compound 903]
CCN1CCN(c2ccc(-c3cc(NC[C@@H](C)c4cccc5c(C(=O)NC)ccnc45)ncn3)cn2)CC1=O [Compound 716]
CNC(=O)c1ccc([C@H](C)CNc2cc(-c3cn(C4COC4)c4ncccc34)ncn2)c(OC)c1 [Compound 481]
CCNC(=O)Cn1ncc2cc(-c3cc(NCC(C)c4ccc(C(=O)NC)cc4OC)ncn3)cnc21 (stereo not shown) [Compound 238]
Cc1ccc(-c2cc(NCC(C)c3cncnc3OC3CCC3)ncn2)cn1 (stereo not shown) [Compound 299]
CCOc1cc(F)ccc1[C@H](C)CNc1cc(-c2ccc(N3CCN(C)CC3)nc2)ncn1 [Compound 120]
CNC(=O)c1ccc(C(C)CNc2cc(-c3ccc4c(cnn4C4COC4)c3C)ncn2)c(OC)c1 (stereo not shown) [Compound 278]
CNC(=O)c1ccc([C@H](C)CNc2cc(-c3ccc(C)nc3)ncn2)c(OC)c1 [Compound 175]
CNC(=O)c1ccnc2c([C@H](C)CNc3cc(-c4cnc(N5CCN(CC(F)F)CC5)nc4)ncn3)cccc12 [Compound 757]
COc1ccccc1[C@H](C)CNc1cc(-c2ccnc(NCCCO)c2)ncn1 [Compound 206]
Cc1ccc(-c2cc(NC[C@@H](C)c3cccc4c(C(N)=O)ccnc34)ncn2)cn1 [Compound 494]
C[C@H](CNc1cc(-c2ccc3ncccc3c2)ncn1)c1ccnc2c1OCCO2 [Compound 464]
CNC(=O)c1ccnc2c([C@H](C)CNc3cc(-c4cnc(OC5CCC5)nc4)ncn3)ccc(F)c12 [Compound 982]
CNC(=O)c1ccc([C@H](C)CNc2cc(-c3ccc4c(ccn4C)c3)ncn2)c(OC)c1 [Compound 268]
Cc1ccc(-c2cc(NC[C@@H](C)c3cc(C)nc4c3OCC4)ncn2)cn1 [Compound 502]
CNC(=O)c1c(OC)cnc2c([C@H](C)CNc3cc(-c4ccc(C)nc4)ncn3)cccc12 [Compound 762]
CNC(=O)c1ccc([C@H](C)CNc2cc(-c3ccc(NC4CCN(C)CC4)nc3)ncn2)c(OC)c1 [Compound 348]
Cc1ccc(-c2cc(NC[C@@H](C)c3ccnc4c3OCCN4)ncn2)cn1 [Compound 660]
CNC(=O)c1ccnc2c([C@H](C)CNc3cc(-c4ccc(C(C)C)nc4)ncn3)ccc(F)c12 [Compound 853]
CNC(=O)c1ccnc2c([C@H](C)CNc3cc(-c4cnc(C(C)(C)OC)nc4)ncn3)ccc(F)c12 [Compound 929]
CNC(=O)c1ccnc2c([C@H](C)CNc3cc(-c4ccc(OC)cc4)ncn3)cccc12 [Compound 682]
CNC(=O)c1ccc([C@H](C)CNc2cc(-c3ccc(N4CCOCC4)nc3)ncn2)c(OC)c1 [Compound 367]
COc1ccccc1CCNc1cc(-c2ccc3c(cnn3C)c2)ncn1 [Compound 79]
CNC(=O)c1ccnc2c([C@H](C)CNc3cc(-c4ccnc(C(F)(F)F)c4)ncn3)cccc12 [Compound 812]
CNC(=O)c1ccnc2c([C@H](C)CNc3cc(-c4ccc(N5CCOC(C)(C)C5)nc4)ncn3)cccc12 [Compound 733]
Cc1ccc(-c2cc(NCC(C)c3ccccc3OC3CCCCC3)ncn2)cn1 (stereo not shown) [Compound 183]
CNC(=O)c1c(F)cnc2c([C@H](C)CNc3cc(-c4ccc(OCC5CC5)nc4)ncn3)cccc12 [Compound 896]
CCNc1ccc(-c2cc(NC[C@@H](C)c3cccc4c(C(=O)NC)ccnc34)ncn2)cn1 [Compound 581]
